Values joined by “and” are separate entries in the source; they are usually repeats but may differ in a detail not shown here. Equal values may be shown once. Read-outs that look alike come from different tables or passages of the source.
What was measured:
[1] = target: ALK (Homo sapiens, UniProt Q9UM73); assay: ALK kinase assay (Kinase-Glo / AlphaScreen, purified NPM-ALK); type: biochemical; set-up: fused to the complete intracytoplasmic portion of ALK containing the functional tyrosine kinase domain; 6xHis; made in house; host or cells: insect cells; the other entry of the earlier key: NPM1 (P06748, Nucleophosmin)
[2] = target: T1, IGF1R (Homo sapiens, UniProt P08069); assay: IGF1R kinase assay; type: biochemical
T1 construct: 6×His- or GST-tagged kinase domain fragments of the corresponding RTKs expressed in baculovirus system; host or cells: baculovirus system
How it was run: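 The AlphaScreen PT66 format of the NPM-ALK assay was applied with minor modifications to commercial recombinant His/GST-tagged kinase domains. Compound (0.078125–40 μM) was incubated 30 min at RT with 10 μM ATP and biotinylated poly-GT in Tris pH 7.5/MgCl2/MnCl2/DTT buffer, then beads 60 min. Read at 520–680 nm; IC50 and Ki derived.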

[3] = target: T2, IRK (Homo sapiens, UniProt P06213); assay: IRK (insulin receptor kinase) assay; type: biochemical; conditions: Table 1; read-out: IRK IC50
T2 construct: 6×His- or GST-tagged kinase domain fragments of the corresponding RTKs expressed in baculovirus system; host or cells: baculovirus system
Description: To determine inhibition of several tyrosine kinases, such as IGF1R, InsR, Alk, TrkA and Jak2, kinase assays are conducted using either Kinase-Glo (Promega) or AlphaScreen (PerkinElmer) kinase assay platforms. The Kinase-Glo Luminescent Kinase Assay is a homogeneous method for measuring kinase activity by determining the amount of ATP remaining after a kinase reaction. The luminescent signal is proportional to the amount of ATP and inversely proportional to the amount of kinase activity. Tyrosine kinase PT66 AlphaScreen Assay is a high-sensitivity homogeneous, anti-phosphotyrosine antibody-mediated luminescent proximity method measuring incorporation of phosphate in synthetic poly(Glu-Tyr) substrate. The kinase preparations used consist of purified recombinant, 6×His- or GST-tagged kinase domain fragments of the corresponding RTKs expressed in baculovirus system.
Compounds with a range of concentrations 40 μM, 20 μM, 10 μM, 5 μM, 2.5 μM, 1.25 μM, 0.625 μM, 0.3125 μM, 0.15625 μM and 0.078125 μM were incubated with NPM-ALK, which was produced in insect cells as a 6×HIS-tagged fusion protein and purified using nickel-charged resin chromatography, for 30 minutes at RT in the presence of 10 μM ATP and 7.0 ng biotinylated poly-GT. A 1:1 mixture of […] and donor beads was then added to the reaction and incubated for an additional 60 minutes at RT. The assay was conducted on a MultiPROBE liquid handling workstation (PerkinElmer) in a 384-well plate format with a total reaction volume of 40 μL per well. Working stocks of all compounds were dissolved in 100% DMSO and serial dilutions of the compounds were performed using kinase buffer (50 mM Tris-HCl (pH 7.5), 5 mM MgCl2, 5 mM MnCl2, 2 mM DTT (added freshly before use), 0.01% Tween-20) containing 5% DMSO. […] Data were collected as optical readings at 520-680 nm on a Fusion™ microplate analyzer (PerkinElmer), and IC50 and Ki values calculated using PRISM3.0 software (GraphPad Software, Inc., San Diego, Calif.). The same assay was also used with minor modifications to assess the IC50 and Ki values for selected compounds against five other tyrosine kinases (IRK, IGF1R, Flt3, Abl, Src), all of which were purchased from commercial vendors. PolyGT-Biotin was bought from CIS Biointernational Cat. #61GT0BLD; ATP—from Sigma Cat. # A7699; sodium orthovanadate—from Sigma Cat. #S-6508; phosphotyrosine (PT66) assay kit from PerkinElmer Cat. #6760602M; automated workstation tips (20 μL): PerkinElmer Cat. #6000657; and OptiPlate-384 (white)—from PerkinElmer Cat. #6007299.

[4] = target: TRKA (Homo sapiens, UniProt P04629); assay: TRKA kinase assay; type: biochemical; set-up: 6×His- or GST-tagged kinase domain fragments of the corresponding RTKs expressed in baculovirus system; host or cells: baculovirus system; conditions: Table 1; read-out: TRKA IC50
[5] = tested on: H929; assay: Cell line IC50, MM (IGF1R) H929; type: cell-based; conditions: Homo sapiens, NCI-H929; Table 2, cell line
[6] = tested on: WI38; assay: Cell line IC50, control WI38; type: cell-based; conditions: Homo sapiens, WI-38; Table 2, cell line
[7] = tested on: Karpas299; assay: Cell proliferation inhibition, ALCL line Karpas299; type: cell-based; conditions: Homo sapiens, KARPAS-299; Table 2, cell line; read-out: IC50 ALCL (ALK) Karpas299
Text: The IL-3-dependent lymphoid cell line BaF3 or BaF3 rendered IL-3-independent by engineered expression of NPM-ALK were used in parallel to test each candidate inhibitor. Control wells contained DMSO solvent without test compound. Specific inhibition of ALK signaling is indicated in the assay by impairment of NPM-ALK-expressing BaF3 cell growth without alterations in the growth of parental BaF3. This colorimetric assay of cell proliferation and viability is based upon reduction of the yellow monotetrazolium salt XTT to a water-soluble orange formazan dye, a reaction catalyzed by mitochondrial dehydrogenases in living cells only (Cell Proliferation Kit II, Cat. #1 465 015, Roche Biochemicals). In addition to testing compounds for their ability to impair the growth of BaF3 cells engineered to express NPM-ALK, the NPM-ALK-positive human lymphoma cell line Karpas-299 (Deutsche Sammlung von Mikroorganismen and Zellkulturen GmbH (DSMZ) no. ACC 31), the human BCR-ABL-positive chronic myeloid leukemia cell line K562 (American Type Culture Collection (ATCC) no. CCL-243), and the human T-cell leukemia line Jurkat (DSMZ no. ACC 282) were tested in these assays.
Each compound stock in 100% DMSO was first diluted using 8% DMSO/culture medium to produce a working stock of 250 μM compound. This working stock was then used to perform serial 1:1 dilutions (i.e., 125 μM, 62.5 μM, 31.25 μM, 15.625 μM, 7.8125 μM, and 3.90625 μM) using DMSO-free culture medium. Twenty (20) μL of each of these dilutions was then added to the cells (2×10^4 cells in 80 μL culture medium per 96-well) to obtain the final test compound concentrations (i.e., 25 μM, 12.5 μM, 6.25 μM, 3.125 μM, 1.5625 μM, and 0.78125 μM).
(§1) Cell proliferation inhibition assays were run for compound (II) with the five target NPM-ALK-dependent ALCL cell lines (Karpas 299, SuDHL-1, JB6, SupM2, UConn) and 12 unrelated cell lines (HEK293, CHO-K1, MCF7, HepG2, H292, H520, H1581, H596, H522, CHA-GO-K1, UMC-11, SK-MES1). […] The pronounced target cell-killing effect is also observed (molecular mechanisms to be determined).

[8] = tested on: UConn; assay: Cell proliferation inhibition, ALCL line UConn; type: cell-based; conditions: Table 2, cell line; read-out: IC50 ALCL (ALK) Uconn
Text: as §1

[9] = tested on: JB6; assay: Cell proliferation inhibition, ALCL line JB6; type: cell-based; conditions: Table 2, cell line, read-out: IC50 ALCL (ALK) JB6
Text: as §1

[10] = Plasma Protein Binding (Human), equilibrium dialysis; type: in vitro ADME; conditions: 1.0E−05 M
[11] = Table 2, read-out: Enzymatic ALK IC50
[12] = Table 2, read-out: Enzymatic IGF1R IC50

Sequence of ALK (Q9UM73 with tags, fused parts or gaps): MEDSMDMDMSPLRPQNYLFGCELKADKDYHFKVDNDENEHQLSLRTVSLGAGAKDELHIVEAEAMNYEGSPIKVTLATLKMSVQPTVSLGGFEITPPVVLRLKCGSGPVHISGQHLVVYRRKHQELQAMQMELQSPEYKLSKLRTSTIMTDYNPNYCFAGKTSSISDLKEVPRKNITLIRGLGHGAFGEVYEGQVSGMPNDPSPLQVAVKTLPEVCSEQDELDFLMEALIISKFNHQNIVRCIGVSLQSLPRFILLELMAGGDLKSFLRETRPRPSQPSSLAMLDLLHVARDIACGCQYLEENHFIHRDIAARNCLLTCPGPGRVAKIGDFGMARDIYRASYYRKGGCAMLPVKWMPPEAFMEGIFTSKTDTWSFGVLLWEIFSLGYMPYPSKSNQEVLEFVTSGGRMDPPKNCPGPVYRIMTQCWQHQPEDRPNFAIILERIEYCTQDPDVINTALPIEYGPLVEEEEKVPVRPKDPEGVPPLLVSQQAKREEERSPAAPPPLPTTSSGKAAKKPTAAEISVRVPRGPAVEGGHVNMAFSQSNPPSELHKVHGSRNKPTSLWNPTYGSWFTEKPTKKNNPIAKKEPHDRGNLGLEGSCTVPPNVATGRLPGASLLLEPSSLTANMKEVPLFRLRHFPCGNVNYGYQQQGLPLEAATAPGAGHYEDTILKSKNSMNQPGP
T2 sequence (P06213 1023-1298 limits assumed): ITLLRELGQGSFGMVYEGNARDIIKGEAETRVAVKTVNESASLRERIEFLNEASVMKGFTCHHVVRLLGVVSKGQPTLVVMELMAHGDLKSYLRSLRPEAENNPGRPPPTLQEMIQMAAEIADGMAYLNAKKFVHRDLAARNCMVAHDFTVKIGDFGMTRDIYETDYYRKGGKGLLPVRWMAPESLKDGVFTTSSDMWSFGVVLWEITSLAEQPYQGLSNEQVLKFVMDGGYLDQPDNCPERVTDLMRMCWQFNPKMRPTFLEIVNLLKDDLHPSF
T1 sequence (P08069 999-1274 limits assumed): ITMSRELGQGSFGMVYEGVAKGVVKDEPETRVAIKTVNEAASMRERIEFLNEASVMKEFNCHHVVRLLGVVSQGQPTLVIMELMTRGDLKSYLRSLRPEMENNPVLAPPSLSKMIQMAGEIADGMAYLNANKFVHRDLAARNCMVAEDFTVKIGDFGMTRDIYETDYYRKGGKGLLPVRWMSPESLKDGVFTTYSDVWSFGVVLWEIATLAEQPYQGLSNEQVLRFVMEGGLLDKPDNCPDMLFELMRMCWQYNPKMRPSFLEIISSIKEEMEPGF
Sequence of TRKA (P04629 510-781 limits assumed): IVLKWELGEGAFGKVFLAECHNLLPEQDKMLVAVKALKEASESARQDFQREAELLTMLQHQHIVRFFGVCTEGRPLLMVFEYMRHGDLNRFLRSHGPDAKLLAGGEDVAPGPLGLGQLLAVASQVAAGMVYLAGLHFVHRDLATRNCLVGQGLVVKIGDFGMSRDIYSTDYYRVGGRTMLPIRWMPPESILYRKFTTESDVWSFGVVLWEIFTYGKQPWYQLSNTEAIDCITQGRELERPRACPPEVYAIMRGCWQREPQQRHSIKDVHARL

`O=C1NC(=O)c2cc3[nH]c(-c4c(NC[C@@H](O)c5cccc(Cl)c5)cc[nH]c4=O)nc3cc21` showed an IC50 ([1]; Table 1, read-out: ALK IC50) greater than 1000 nM, an IC50 ([2]; Table 1, read-out: IGF1R IC50) of 250 to 1000 nM and an IC50 [3] greater than 1000 nM. It also gave an IC50 [4] of 100 to 250 nM.
Molecule `Cc1cccc(C)c1C[C@H](C)Nc1cc[nH]c(=O)c1-c1nc2cc3c(cc2[nH]1)C(=O)N(CCN1CCCC1)C3` has an IC50 ([1]; Table 1, read-out: ALK IC50) of 10 to 100 nM, an IC50 ([2]; Table 1, read-out: IGF1R IC50) greater than 1000 nM and an IC50 [3] greater than 1000 nM. It also gave an IC50 [4] of less than 10 nM.
Molecule `C[C@@H](Cc1cc(F)cc(F)c1F)Nc1cc[nH]c(=O)c1-c1nc2cc3c(cc2[nH]1)CN(CCN1CCCC1)C3=O` [drawing 358] has an IC50 [1, 11] of 10 to 100 nM, an IC50 [2, 12] of 250 to 1000 nM and an IC50 [5] of 250 to 1000 nM. The IC50 [6] was greater than 1000 nM, the IC50 [7] was 10 to 100 nM and the IC50 [8] was 10 to 100 nM. The IC50 [9] was 10 to 100 nM.
Work on `C[C@@H]1CCCN1CCN1Cc2cc3[nH]c(-c4c(N[C@@H](C)Cc5cc(F)cc(F)c5F)cc[nH]c4=O)nc3cc2C1=O` [drawing 353] yielded an IC50 [1, 11] of less than 10 nM, an IC50 [2, 12] greater than 1000 nM and an IC50 [5] of 250 to 1000 nM. For the same molecule, the IC50 [6] was greater than 1000 nM, the IC50 [7] was less than 10 nM and the IC50 [8] was 10 to 100 nM. It also gave an IC50 [9] of less than 10 nM.
For `C[C@@H](Cc1c(F)c(F)cc(F)c1F)Nc1cc[nH]c(=O)c1-c1nc2cc3c(cc2[nH]1)CN(CCN1CCCC1)C3=O` [drawing 352], the IC50 [1, 11] was less than 10 nM, the IC50 [2, 12] was greater than 1000 nM and the IC50 [5] was 250 to 1000 nM. It also gave an IC50 [6] greater than 1000 nM, an IC50 [7] of less than 10 nM and an IC50 [8] of 10 to 100 nM. The IC50 [9] was less than 10 nM.
For `Cc1ccc(F)cc1C[C@H](C)Nc1cc[nH]c(=O)c1-c1nc2cc3c(cc2[nH]1)C(=O)N(CCN1CCCC1)C3` [drawing 350], the IC50 [1, 11] was less than 10 nM, the IC50 [2, 12] was 100 to 250 nM and the IC50 [5] was 250 to 1000 nM. The IC50 [6] was greater than 1000 nM, the IC50 [7] was less than 10 nM and the IC50 [8] was 10 to 100 nM. The IC50 [9] was less than 10 nM.
`Cc1ccc(F)cc1C[C@H](C)Nc1cc[nH]c(=O)c1-c1nc2cc3c(cc2[nH]1)CN(CCN(C)C)C3=O` [drawing 357] gave an IC50 [1, 11] of less than 10 nM, an IC50 [2, 12] of 100 to 250 nM and an IC50 [5] of 250 to 1000 nM. The IC50 [6] was greater than 1000 nM, the IC50 [7] was 10 to 100 nM and the IC50 [8] was 10 to 100 nM. It also gave an IC50 [9] of 10 to 100 nM.
For `CCCC(=O)Nc1ccc(OCC(O)CNC(C)C)c(C(C)=O)c1` (stereo not shown) [Acebutolol], the “% Protein Bound, Mean” value ([10]; equilibrium dialysis) was 19.2% and the “% Protein Bound, 1st/2nd” value ([10]; individual data) was 21.4% and 16.9%.
`O=C1c2cc3nc(-c4c(NC[C@@H](O)c5cccc(Cl)c5)cc[nH]c4=O)[nH]c3cc2C(=O)N1CCN1CCCC1` gave an IC50 ([1]; Table 1, read-out: ALK IC50) of 10 to 100 nM, an IC50 ([2]; Table 1, read-out: IGF1R IC50) of 10 to 100 nM and an IC50 [3] of 100 to 250 nM. It also gave an IC50 [4] of 10 to 100 nM.
